Data as given in patent US12077503B2, “Substituted cyclic amides and their use as herbicides” (FMC CORPORATION, priority 2015, dated 2024).
Like-named read-outs stand apart in the source and are kept apart here.

How the values were obtained:
Type in all cases: in vivo
[1] = tested on: corn (Zea mays); assay: Test A postemergence; conditions: Zea mays, post-emergence, 240 h; for Corn plant response rating (crop injury, 0 = no effect, 100 = complete kill) at 125 g/ha / plant injury at 125 g/ha: 125 g ai/ha; for Corn plant response rating (crop injury, 0 = no effect, 100 = complete kill) at 125 g/ha: postemergence, visual injury after approximately 10 d; for Corn plant response rating (crop injury, 0 = no effect, 100 = complete kill) at 125 g/ha / Corn plant response rating (crop injury, 0 = no effect, 100 = complete kill) at 500 g/ha: 0 to 100 scale (0 no effect, 100 complete control); for plant injury at 125 g/ha / Corn plant response rating (crop injury, 0 = no effect, 100 = complete kill) at 500 g/ha: Postemergence; for plant injury at 125 g/ha: visual rating about 10 d after treatment, read-out: Corn plant response rating (0 to 100 scale); for Corn plant response rating (crop injury, 0 = no effect, 100 = complete kill) at 500 g/ha: 500 g ai/ha, visual injury, approx. 10 d
Outline: (§1)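 Ratings of 0 (no effect) to 100 (complete control) come from visual comparison with untreated controls roughly 10 d after treatment. Test chemicals, formulated in a non-phytotoxic solvent mixture with surfactant, were applied either as a preemergence directed soil spray on seeded soil or postemergence to one- to two-leaf plants 2 to 10 cm tall.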

[2] = tested on: blackgrass (Alopecurus myosuroides); assay: Test A postemergence; conditions: Alopecurus myosuroides, post-emergence, 240 h; for pest or weed control at 125 g/ha: 125 g ai/ha; for pest or weed control at 500 g/ha: 500 g ai/ha, visual injury, approx. 10 d
Outline: as §1

[3] = tested on: Kochia (Kochia scoparia); assay: Test A postemergence; conditions: Bassia scoparia, post-emergence, 240 h, 125 g ai/ha, postemergence; visual injury after approximately 10 d; 0 to 100 scale (0 no effect, 100 complete control); read-out: Plant response rating, Kochia
Outline: as §1

[4] = tested on: barnyardgrass (Echinochloa crus-galli); assay: Test A postemergence; conditions: Echinochloa crus-galli, post-emergence, 240 h; for pest or weed control at 125 g/ha: 125 g ai/ha; for pest or weed control at 500 g/ha: 500 g ai/ha, visual injury, approx. 10 d
Outline: as §1

[5] = tested on: ryegrass, Italian (Italian ryegrass, Lolium multiflorum); assay: Test A postemergence; conditions: Lolium multiflorum, post-emergence, 240 h; for pest or weed control at 125 g/ha: 125 g ai/ha; for pest or weed control at 500 g/ha: 500 g ai/ha, visual injury, approx. 10 d
Outline: as §1

[6] = tested on: ragweed (common ragweed, Ambrosia elatior); assay: Test A postemergence; conditions: Ambrosia artemisiifolia, post-emergence, 240 h; for pest or weed control at 125 g/ha: 125 g ai/ha; for pest or weed control at 500 g/ha: 500 g ai/ha, visual injury, approx. 10 d
Outline: as §1

[7] = tested on: Galium (catchweed bedstraw, Galium aparine); assay: Test A postemergence; conditions: Galium, post-emergence, 240 h; for pest or weed control at 125 g/ha: 125 g ai/ha; for pest or weed control at 500 g/ha: 500 g ai/ha, visual injury, approx. 10 d
Outline: as §1

[8] = tested on: giant foxtail (Setaria faberii); assay: Test A postemergence; conditions: Setaria faberi, post-emergence, 240 h; for pest or weed control at 125 g/ha: 125 g ai/ha; for pest or weed control at 500 g/ha: 500 g ai/ha, visual injury, approx. 10 d
Outline: as §1

[9] = tested on: pigweed (Amaranthus retroflexus); assay: Test A postemergence; conditions: Amaranthus retroflexus, post-emergence, 240 h; for pest or weed control at 125 g/ha: 125 g ai/ha; for pest or weed control at 500 g/ha: 500 g ai/ha, visual injury, approx. 10 d
Outline: as §1

[10] = tested on: barnyardgrass (Echinochloa crus-galli); assay: Test B flooded paddy test; conditions: Echinochloa crus-galli, Flood, 250 g ai/ha
Outline: (§2)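 Visual ratings (0 none to 100 complete control) are relative to untreated plants, taken 13–15 d after treatment in a greenhouse. Test material went straight into floodwater standing 3 cm above the soil, kept constant, on plants at the 2-leaf stage.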

[11] = tested on: rice (Oryra sativa); assay: Test B flooded paddy test; conditions: Oryza sativa, Flood, 250 g ai/ha
Outline: as §2

[12] = tested on: sedge, umbrella (small-flower umbrella sedge, Cyperus difformis); assay: Test B flooded paddy test; conditions: Cyperus difformis, Flood, 250 g ai/ha
Outline: as §2

[13] = tested on: ducksalad (Heteranthera limosa); assay: Test B flooded paddy test; conditions: Heteranthera limosa, Flood, 250 g ai/ha
Outline: as §2

[14] = tested on: wheat (Triticum aestivum); assay: Test A postemergence; conditions: Triticum aestivum, post-emergence, 240 h, Postemergence; for plant injury at 125 g/ha: 125 g ai/ha, visual rating about 10 d after treatment, read-out: Wheat plant response rating (0 to 100 scale); for plant injury at 500 g/ha: 500 g ai/ha, visual injury, 0 to 100 scale (0 no effect, 100 complete control), approx. 10 d, read-out: Plant response rating, Wheat
Outline: as §1

[15] = postemergence, visual injury after approximately 10 d, 0 to 100 scale (0 no effect, 100 complete control), read-out: Plant response rating, Blackgrass
[16] = postemergence, visual injury after approximately 10 d, 0 to 100 scale (0 no effect, 100 complete control), read-out: Plant response rating, Barnyardgrass
[17] = postemergence, visual injury after approximately 10 d, 0 to 100 scale (0 no effect, 100 complete control), read-out: Plant response rating, Ryegrass, Italian
[18] = postemergence, visual injury after approximately 10 d, 0 to 100 scale (0 no effect, 100 complete control), read-out: Plant response rating, Ragweed
[19] = postemergence, visual injury after approximately 10 d, 0 to 100 scale (0 no effect, 100 complete control), read-out: Plant response rating, Galium
[20] = postemergence, visual injury after approximately 10 d, 0 to 100 scale (0 no effect, 100 complete control), read-out: Plant response rating, Foxtail, Giant
[21] = postemergence, visual injury after approximately 10 d, 0 to 100 scale (0 no effect, 100 complete control), read-out: Plant response rating, Pigweed
[22] = scale of 0 to 100 where 0 is no effect and 100 is complete control, read-out: Barnyardgrass plant response rating
[23] = scale of 0 to 100 where 0 is no effect and 100 is complete control, read-out: Rice plant response rating
[24] = scale of 0 to 100 where 0 is no effect and 100 is complete control, read-out: Sedge, Umbrella plant response rating
[25] = scale of 0 to 100 where 0 is no effect and 100 is complete control, read-out: Ducksalad plant response rating
[26] = Postemergence, visual rating about 10 d after treatment, read-out: Blackgrass plant response rating (0 to 100 scale)
[27] = Postemergence, 0 to 100 scale (0 no effect, 100 complete control), read-out: Plant response rating, Blackgrass
[28] = Postemergence, visual rating about 10 d after treatment, read-out: Barnyardgrass plant response rating (0 to 100 scale, 0 no effect, 100 complete control)
[29] = Postemergence, 0 to 100 scale (0 no effect, 100 complete control), read-out: Plant response rating, Barnyardgrass
[30] = Postemergence, visual rating about 10 d after treatment, read-out: Ryegrass, Italian plant response rating (0 to 100 scale)
[31] = Postemergence, 0 to 100 scale (0 no effect, 100 complete control), read-out: Plant response rating, Ryegrass, Italian
[32] = Postemergence, visual rating about 10 d after treatment, read-out: Ragweed plant response rating (0 to 100 scale)
[33] = Postemergence, 0 to 100 scale (0 no effect, 100 complete control), read-out: Plant response rating, Ragweed
[34] = Postemergence, visual rating about 10 d after treatment, read-out: Galium plant response rating (0 to 100 scale)
[35] = Postemergence, 0 to 100 scale (0 no effect, 100 complete control), read-out: Plant response rating, Galium
[36] = Postemergence, visual rating about 10 d after treatment, read-out: Foxtail, Giant plant response rating (0 to 100 scale)
[37] = Postemergence, 0 to 100 scale (0 no effect, 100 complete control), read-out: Plant response rating, Foxtail, Giant
[38] = Postemergence, visual rating about 10 d after treatment, read-out: Pigweed plant response rating (0 to 100 scale)
[39] = Postemergence, 0 to 100 scale (0 no effect, 100 complete control), read-out: Plant response rating, Pigweed

SMILES | Corn plant response rating (crop injury, 0 = no effect, 100 = complete kill) at 125 g/ha [1] [%] | pest or weed control at 125 g/ha [2, 15] [%] | pest or weed control at 125 g/ha [3] [%] | pest or weed control at 125 g/ha [4, 16] [%] | pest or weed control at 125 g/ha [5, 17] [%] | pest or weed control at 125 g/ha [6, 18] [%] | pest or weed control at 125 g/ha [7, 19] [%] | pest or weed control at 125 g/ha [8, 20] [%] | pest or weed control at 125 g/ha [9, 21] [%] | pest or weed control at 250 g/ha [10, 22] [%] | pest or weed control at 250 g/ha [11, 23] [%] | pest or weed control at 250 g/ha [12, 24] [%] | pest or weed control at 250 g/ha [13, 25] [%] | plant injury at 125 g/ha [1] [%] | Corn plant response rating (crop injury, 0 = no effect, 100 = complete kill) at 500 g/ha [1] [%] | plant injury at 125 g/ha [14] [%] | plant injury at 500 g/ha [14] [%] | pest or weed control at 125 g/ha [2, 26] [%] | pest or weed control at 500 g/ha [2, 27] [%] | pest or weed control at 125 g/ha [4, 28] [%] | further results
Cc1cc([C@H]2CNC(=O)[C@@H]2C(=O)Nc2ccccc2F)ccc1Cl [Compound 789] | 20 | 40 | 0 | 80 | 0 | 0 | 40 | 30 | 0 | 20 | 0 | 0 | 100 |  |  |  |  |  |  |  | 
Cc1cc([C@H]2CNC(=O)[C@@H]2C(=O)Nc2cccc(F)c2F)ccc1Cl [Compound 790] | 30 | 40 | 40 | 80 | 0 | 30 | 50 | 50 | 20 | 40 | 0 | 0 | 100 |  |  |  |  |  |  |  | 
CN1CC(c2cccc(OCC=C(Cl)Cl)c2)C(C(=O)Nc2cccc(F)c2F)C1=O (stereo not shown) [Compound 1303] |  |  |  |  |  |  |  |  |  |  |  |  |  | 0 | 0 | 0 | 0 | 0 | 0 | 0 | pest or weed control at 500 g/ha [4, 29]: 30%; pest or weed control at 125 g/ha [5, 30]: 0%; pest or weed control at 500 g/ha [5, 31]: 0%; pest or weed control at 125 g/ha [6, 32]: 0%; pest or weed control at 500 g/ha [6, 33]: 0%; pest or weed control at 125 g/ha [7, 34]: 0%; pest or weed control at 500 g/ha [7, 35]: 0%; pest or weed control at 125 g/ha [8, 36]: 40%; pest or weed control at 500 g/ha [8, 37]: 60%; pest or weed control at 125 g/ha [9, 38]: 0%; pest or weed control at 500 g/ha [9, 39]: 0%; pest or weed control at 250 g/ha ([10]; 0 to 100 scale where 0 is no effect and 100 is complete control, read-out: Barnyardgrass plant response rating): 0%; pest or weed control at 250 g/ha ([11]; 0 to 100 scale where 0 is no effect and 100 is complete control, read-out: Rice plant response rating): 0%; pest or weed control at 250 g/ha ([12]; 0 to 100 scale where 0 is no effect and 100 is complete control, read-out: Sedge, Umbrella plant response rating): 0%; pest or weed control at 250 g/ha ([13]; 0 to 100 scale where 0 is no effect and 100 is complete control, read-out: Ducksalad plant response rating): 0%
Cc1ccc([C@H]2CN(C)C(=O)[C@@H]2C(=O)Nc2ccc(F)c(F)c2F)cc1 [Compound 1378] |  |  |  |  |  |  |  |  |  |  |  |  |  | 80 | 80 | 60 | 70 | 30 | 40 | 80 | pest or weed control at 500 g/ha [4, 29]: 80%; pest or weed control at 125 g/ha [5, 30]: 40%; pest or weed control at 500 g/ha [5, 31]: 60%; pest or weed control at 125 g/ha [6, 32]: 40%; pest or weed control at 500 g/ha [6, 33]: 70%; pest or weed control at 125 g/ha [7, 34]: 60%; pest or weed control at 500 g/ha [7, 35]: 70%; pest or weed control at 125 g/ha [8, 36]: 80%; pest or weed control at 500 g/ha [8, 37]: 90%; pest or weed control at 125 g/ha [9, 38]: 30%; pest or weed control at 500 g/ha [9, 39]: 70%; pest or weed control at 250 g/ha ([10]; 360 h, visually evaluated after 13 to 15 d, read-out: Plant response rating, Barnyardgrass (0 to 100 scale where 0 is no effect and 100 is complete control)): 85%; pest or weed control at 250 g/ha ([11]; 360 h, visually evaluated after 13 to 15 d, read-out: Plant response rating, Rice (0 to 100 scale where 0 is no effect and 100 is complete control)): 45%; pest or weed control at 250 g/ha ([12]; 360 h, visually evaluated after 13 to 15 d, read-out: Plant response rating, Sedge, Umbrella (0 to 100 scale where 0 is no effect and 100 is complete control)): 0%; pest or weed control at 250 g/ha ([13]; 360 h, visually evaluated after 13 to 15 d, read-out: Plant response rating, Ducksalad (0 to 100 scale where 0 is no effect and 100 is complete control)): 95%
